From ChEMBL document CHEMBL1201862, “PubChem BioAssay data set” (2004)
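How tested: cells in 96-well plates exposed to compound for 48 hours at five concentrations. GI50: concentration for 50% inhibition of growth.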 The source made the active and inactive calls. No stated cut-off is given here; in the data, active = GI50 up to about 1.1 µM and inactive = higher.

Legend:
Assay in all cases: growth of human tumour cells (NCI), 48 h
HT-29 = tested on: HT-29
SW-620 = tested on: SW-620
MCF7 = tested on: MCF7
UACC-257 = tested on: UACC-257
MOLT-4 = tested on: MOLT-4
CCRF-CEM = tested on: CCRF-CEM
NCI-H460 = tested on: NCI-H460
NCI-H226 = tested on: NCI-H226
RXF 393 = tested on: RXF 393
SF-268 = tested on: SF-268
HCC 2998 = tested on: HCC 2998
OVCAR-4 = tested on: OVCAR-4
Malme-3M = tested on: Malme-3M
NCI/ADR-RES = tested on: NCI/ADR-RES
RPMI-8226 = tested on: RPMI-8226
U-251 = tested on: U-251
Hs-578T = tested on: Hs-578T
OVCAR-8 = tested on: OVCAR-8
SF-539 = tested on: SF-539
HOP-62 = tested on: HOP-62
BT-549 = tested on: BT-549
SF-295 = tested on: SF-295
SNB-75 = tested on: SNB-75
SK-OV-3 = tested on: SK-OV-3
SK-MEL-5 = tested on: SK-MEL-5
OVCAR-5 = tested on: OVCAR-5
SK-MEL-28 = tested on: SK-MEL-28
SN12C = tested on: SN12C
CAKI-1 = tested on: CAKI-1
786-0 = tested on: 786-0
ACHN = tested on: ACHN
NCI-H522 = tested on: NCI-H522
M14 = tested on: M14
SNB-19 = tested on: SNB-19
EKVX = tested on: EKVX
MDA-MB-231 = tested on: MDA-MB-231
A549 = tested on: A549
KM12 = tested on: KM12
HOP-92 = tested on: HOP-92
HCT-116 = tested on: HCT-116
UACC-62 = tested on: UACC-62
COLO 205 = tested on: COLO 205
TK-10 = tested on: TK-10
HCT-15 = tested on: HCT-15
PC-3 = tested on: PC-3
LOX IMVI = tested on: LOX IMVI
MDA-MB-435 = tested on: MDA-MB-435
SK-MEL-2 = tested on: SK-MEL-2
A498 = tested on: A498
K562 = tested on: K562
IGROV-1 = tested on: IGROV-1
OVCAR-3 = tested on: OVCAR-3
NCI-H23 = tested on: NCI-H23
MDA-N = tested on: MDA-N
HL-60 = tested on: HL-60
DU-145 = tested on: DU-145
T47D = tested on: T47D
SR = tested on: SR
UO-31 = tested on: UO-31

Cc1ccc(-c2c(C#N)c(-c3ccccc3)c(C#N)c(=O)n2NS(=O)(=O)c2ccc(C)cc2)cc1
GI50 (HT-29): 50.6 µM (inactive)
GI50 (SW-620): 14.8 µM (inactive)
GI50 (MCF7): 35.4 µM (inactive)
GI50 (UACC-257): 56.1 µM (inactive)
GI50 (MOLT-4): 12.9 µM (inactive)
GI50 (CCRF-CEM): 19.6 µM (inactive)
GI50 (NCI-H460): 15.7 µM (inactive)
GI50 (NCI-H226): 83.9 µM (inactive)
GI50 (RXF 393): 62.2 µM (inactive)
GI50 (SF-268): > 100 µM (inactive)
GI50 (HCC 2998): 19.9 µM (inactive)
GI50 (OVCAR-4): 45.7 µM (inactive)
GI50 (Malme-3M): > 100 µM (inactive)
GI50 (NCI/ADR-RES): > 100 µM (inactive)
GI50 (RPMI-8226): 2.75 µM (inactive)
GI50 (U-251): 45.2 µM (inactive)
GI50 (Hs-578T): > 100 µM (inactive)
GI50 (OVCAR-8): 52.7 µM (inactive)
GI50 (SF-539): 13.3 µM (inactive)
GI50 (HOP-62): 50.4 µM (inactive)
GI50 (BT-549): 70.1 µM (inactive)
GI50 (SF-295): 24 µM (inactive)
GI50 (SNB-75): > 100 µM (inactive)
GI50 (SK-OV-3): 79.8 µM (inactive)
GI50 (SK-MEL-5): 12.6 µM (inactive)
GI50 (OVCAR-5): > 100 µM (inactive)
GI50 (SK-MEL-28): 52.2 µM (inactive)
GI50 (SN12C): 61.2 µM (inactive)
GI50 (CAKI-1): 48.4 µM (inactive)
GI50 (786-0): 44.6 µM (inactive)
GI50 (ACHN): 33.3 µM (inactive)
GI50 (NCI-H522): 56.9 µM (inactive)
GI50 (M14): 31 µM (inactive)
GI50 (SNB-19): 5.56 µM (inactive)
GI50 (EKVX): 72.1 µM (inactive)
GI50 (MDA-MB-231): > 100 µM (inactive)
GI50 (A549): 34.4 µM (inactive)
GI50 (KM12): 38.5 µM (inactive)
GI50 (HOP-92): 20.8 µM (inactive)
GI50 (HCT-116): 22.9 µM (inactive)
GI50 (UACC-62): 23.3 µM (inactive)
GI50 (COLO 205): 95.9 µM (inactive)
GI50 (TK-10): 40.7 µM (inactive)
GI50 (HCT-15): 22.2 µM
GI50 (PC-3): 35 µM (inactive)
GI50 (LOX IMVI): 19.8 µM (inactive)
GI50 (MDA-MB-435): 48.9 µM (inactive)
GI50 (SK-MEL-2): 35.7 µM (inactive)
GI50 (A498): 27.4 µM (inactive)
GI50 (K562): 40.3 µM (inactive)
GI50 (IGROV-1): 48.1 µM (inactive)

COc1ccc(C)cc1NC(=S)C#N
GI50 (HT-29): 30.8 µM (inactive)
GI50 (SW-620): > 100 µM (inactive)
GI50 (MCF7): 32.2 µM (inactive)
GI50 (OVCAR-3): 27.1 µM (inactive)
GI50 (UACC-257): 35.3 µM (inactive)
GI50 (CCRF-CEM): 71 µM (inactive)
GI50 (NCI-H226): 27.5 µM (inactive)
GI50 (NCI-H23): 33.3 µM (inactive)
GI50 (RXF 393): 28.1 µM (inactive)
GI50 (SF-268): 27.5 µM (inactive)
GI50 (HCC 2998): 44.6 µM (inactive)
GI50 (NCI/ADR-RES): 27.4 µM (inactive)
GI50 (RPMI-8226): 74.8 µM (inactive)
GI50 (U-251): > 100 µM (inactive)
GI50 (OVCAR-8): 27.9 µM (inactive)
GI50 (SF-539): 33.1 µM (inactive)
GI50 (HOP-62): 29.6 µM (inactive)
GI50 (MDA-N): > 100 µM (inactive)
GI50 (BT-549): 35.2 µM (inactive)
GI50 (SF-295): 31.9 µM (inactive)
GI50 (SNB-75): 25.1 µM (inactive)
GI50 (SK-OV-3): 27.8 µM (inactive)
GI50 (SK-MEL-5): > 100 µM (inactive)
GI50 (OVCAR-5): 29.6 µM (inactive)
GI50 (SK-MEL-28): > 100 µM (inactive)
GI50 (SN12C): > 100 µM (inactive)
GI50 (CAKI-1): > 100 µM (inactive)
GI50 (786-0): > 100 µM (inactive)
GI50 (ACHN): 30.3 µM (inactive)
GI50 (M14): 30.5 µM (inactive)
GI50 (SNB-19): 28.9 µM (inactive)
GI50 (MDA-MB-231): > 100 µM (inactive)
GI50 (A549): > 100 µM (inactive)
GI50 (KM12): 36.2 µM (inactive)
GI50 (HL-60): > 100 µM (inactive)
GI50 (HOP-92): > 100 µM (inactive)
GI50 (HCT-116): > 100 µM (inactive)
GI50 (UACC-62): 34.4 µM (inactive)
GI50 (COLO 205): > 100 µM (inactive)
GI50 (TK-10): 31.9 µM (inactive)
GI50 (HCT-15): 27.5 µM
GI50 (PC-3): 26.4 µM (inactive)
GI50 (LOX IMVI): > 100 µM (inactive)
GI50 (MDA-MB-435): > 100 µM (inactive)
GI50 (DU-145): > 100 µM (inactive)
GI50 (SK-MEL-2): 29.2 µM (inactive)
GI50 (A498): > 100 µM (inactive)
GI50 (T47D): > 100 µM (inactive)
GI50 (K562): > 100 µM (inactive)

CC1=CCC[C@H]2[C@](C)(CC3=CC(=O)C(Sc4ccccc4)=CC3=O)[C@@H](C)CC[C@]12C
GI50 (SW-620): 16.9 µM (inactive)
GI50 (OVCAR-3): 16.6 µM (inactive)
GI50 (UACC-257): 15.9 µM (inactive)
GI50 (NCI-H460): 20 µM (inactive)
GI50 (NCI-H226): 14.7 µM (inactive)
GI50 (HCC 2998): 20.4 µM (inactive)
GI50 (SR): 21.8 µM (inactive)
GI50 (OVCAR-4): 19.7 µM (inactive)
GI50 (NCI/ADR-RES): 17.1 µM (inactive)
GI50 (U-251): 18.1 µM (inactive)
GI50 (OVCAR-8): 13.6 µM (inactive)
GI50 (SF-539): 19.8 µM (inactive)
GI50 (HOP-62): 16.9 µM (inactive)
GI50 (MDA-N): 18.5 µM (inactive)
GI50 (BT-549): 19.5 µM (inactive)
GI50 (SF-295): 17.3 µM (inactive)
GI50 (SNB-75): 20.4 µM (inactive)
GI50 (SK-MEL-5): 17.2 µM (inactive)
GI50 (OVCAR-5): 17.1 µM (inactive)
GI50 (SK-MEL-28): 20.9 µM (inactive)
GI50 (SN12C): 17.7 µM (inactive)
GI50 (CAKI-1): 17.1 µM (inactive)
GI50 (786-0): 18.2 µM (inactive)
GI50 (ACHN): 19.2 µM (inactive)
GI50 (M14): 16.7 µM (inactive)
GI50 (UO-31): 15.7 µM (inactive)
GI50 (SNB-19): 20.5 µM (inactive)
GI50 (EKVX): 20.2 µM (inactive)
GI50 (MDA-MB-231): 21.4 µM (inactive)
GI50 (A549): 17.5 µM (inactive)
GI50 (KM12): 41.6 µM (inactive)
GI50 (HCT-116): 16.6 µM (inactive)
GI50 (UACC-62): 21.7 µM (inactive)
GI50 (COLO 205): 14.5 µM (inactive)
GI50 (HCT-15): 19.2 µM
GI50 (PC-3): 23 µM (inactive)
GI50 (DU-145): 22.5 µM (inactive)
GI50 (A498): 19.9 µM (inactive)
